Measured values taken from article PMC6556873, “Rapid Covalent-Probe Discovery by Electrophile-Fragment Screening” (Journal of the American Chemical Society, 2019).
Like-named read-outs stand apart in the source and are kept apart here.

What was measured:
in vitro [1] = assay: in vitro; design: species or system HB2, HEK293; details: human, ccd841 cells
in vitro [2] = assay: in vitro; design: species or system CCD841, HEK293; details: human, hb2 cells, read-out: HB-2 Cells Viability (%)
BSA = molecular target: T1, BSA (Bos taurus, UniProt P02769); design: Intact protein LC/MS covalent labelling, fragments in pools of five, 200 uM each, 4 °C; details: 24 h, 4 °C, pool of five; 200 µM; covalent
T1 construct: gene ALB

NUDT7 = molecular target: T2, NUDT7 (Homo sapiens, UniProt P0C024); design: Intact protein LC/MS covalent labelling, fragments in pools of five, 200 uM each, 4 °C; details: 24 h, 4 °C, pool of five; 200 µM; covalent
T2 construct: residues 14-235, E. coli, pNIC28-Bsa4, N-terminal His6 tag removed by TEV, construct 26672 Da

PCAF = molecular target: T3, PCAF (Homo sapiens, UniProt Q92831); design: Intact protein LC/MS covalent labelling, fragments in pools of five, 200 uM each, 4 °C; details: 24 h, 4 °C, pool of five; 200 µM; covalent
T3 construct: gene KAT2B

NNMT (hNNMT) = molecular target: T4, NNMT (hNNMT) (Homo sapiens, UniProt P40261); design: Intact protein LC/MS covalent labelling, fragments in pools of five, 200 uM each, 4 °C; details: 24 h, 4 °C, pool of five; 200 µM; covalent
T4 construct: wild type, N-terminal His6 tag kept (no cleavage described), E. coli, construct 31248 Da
T4 sequence (P40261 1-264): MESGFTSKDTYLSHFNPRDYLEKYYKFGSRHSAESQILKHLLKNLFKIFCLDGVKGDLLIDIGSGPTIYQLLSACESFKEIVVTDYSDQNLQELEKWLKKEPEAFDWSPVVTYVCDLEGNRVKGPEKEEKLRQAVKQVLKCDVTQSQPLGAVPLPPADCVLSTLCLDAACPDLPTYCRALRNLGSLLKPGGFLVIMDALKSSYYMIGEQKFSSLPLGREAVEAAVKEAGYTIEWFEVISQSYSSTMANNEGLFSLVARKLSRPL

OTUB2 (OTUB2A) = molecular target: T5, OTUB2 (OTUB2A) (Homo sapiens, UniProt Q96DC9); design: Intact protein LC/MS covalent labelling, fragments in pools of five, 200 uM each, 4 °C; details: 24 h, 4 °C, pool of five; 200 µM; covalent
T5 construct: full length residues 1-234, E. coli BL21(DE3)-R3, His tag removed by TEV, construct 27312 Da
T5 sequence (Q96DC9 1-234): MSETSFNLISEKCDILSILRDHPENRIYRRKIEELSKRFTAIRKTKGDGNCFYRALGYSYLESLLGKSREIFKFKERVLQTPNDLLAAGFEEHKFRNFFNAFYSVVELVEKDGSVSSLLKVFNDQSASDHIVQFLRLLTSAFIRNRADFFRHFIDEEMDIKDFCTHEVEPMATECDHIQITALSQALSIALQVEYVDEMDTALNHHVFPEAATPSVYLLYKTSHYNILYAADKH

in vitro [3] = assay: in vitro; design: species or system HB2, CCD841; details: human, hek293 cells

T3 sequence (Q92831 whole entry, the tested form may be a part): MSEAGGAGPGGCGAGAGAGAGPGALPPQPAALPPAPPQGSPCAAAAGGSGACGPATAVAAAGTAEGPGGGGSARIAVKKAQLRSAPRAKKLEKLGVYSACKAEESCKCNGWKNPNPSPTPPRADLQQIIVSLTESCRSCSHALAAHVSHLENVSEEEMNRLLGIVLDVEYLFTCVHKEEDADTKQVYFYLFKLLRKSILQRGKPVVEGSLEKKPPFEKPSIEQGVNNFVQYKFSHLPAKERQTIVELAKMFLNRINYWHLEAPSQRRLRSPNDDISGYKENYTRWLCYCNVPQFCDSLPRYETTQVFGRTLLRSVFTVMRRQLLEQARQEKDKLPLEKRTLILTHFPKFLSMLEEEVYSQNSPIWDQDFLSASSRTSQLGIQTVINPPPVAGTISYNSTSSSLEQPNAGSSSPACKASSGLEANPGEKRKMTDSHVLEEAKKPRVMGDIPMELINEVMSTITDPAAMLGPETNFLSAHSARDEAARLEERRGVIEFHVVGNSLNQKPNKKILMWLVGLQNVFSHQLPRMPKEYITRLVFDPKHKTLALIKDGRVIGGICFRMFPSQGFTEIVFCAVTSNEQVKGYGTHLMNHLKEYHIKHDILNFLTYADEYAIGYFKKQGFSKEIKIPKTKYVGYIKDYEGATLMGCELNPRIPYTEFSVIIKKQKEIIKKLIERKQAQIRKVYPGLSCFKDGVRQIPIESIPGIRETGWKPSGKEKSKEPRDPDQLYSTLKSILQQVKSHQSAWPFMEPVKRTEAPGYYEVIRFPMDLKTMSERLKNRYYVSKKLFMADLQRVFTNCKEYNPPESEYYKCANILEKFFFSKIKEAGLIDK
T1 sequence (P02769 whole entry, the tested form may be a part): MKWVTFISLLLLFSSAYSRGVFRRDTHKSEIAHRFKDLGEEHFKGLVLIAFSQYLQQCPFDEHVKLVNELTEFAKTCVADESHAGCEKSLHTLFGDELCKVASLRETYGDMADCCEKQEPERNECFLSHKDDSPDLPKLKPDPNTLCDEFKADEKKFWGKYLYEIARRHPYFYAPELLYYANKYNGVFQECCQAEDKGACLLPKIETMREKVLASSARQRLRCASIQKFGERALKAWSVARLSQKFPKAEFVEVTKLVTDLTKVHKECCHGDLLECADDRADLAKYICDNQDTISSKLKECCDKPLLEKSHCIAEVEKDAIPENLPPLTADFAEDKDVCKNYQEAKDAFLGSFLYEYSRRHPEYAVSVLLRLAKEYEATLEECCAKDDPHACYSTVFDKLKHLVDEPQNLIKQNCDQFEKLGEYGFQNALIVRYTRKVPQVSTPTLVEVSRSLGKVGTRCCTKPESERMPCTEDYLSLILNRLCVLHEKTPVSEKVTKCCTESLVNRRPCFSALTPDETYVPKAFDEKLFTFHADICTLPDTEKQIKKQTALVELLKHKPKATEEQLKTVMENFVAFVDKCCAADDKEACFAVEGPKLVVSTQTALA
T2 sequence (P0C024 14-235): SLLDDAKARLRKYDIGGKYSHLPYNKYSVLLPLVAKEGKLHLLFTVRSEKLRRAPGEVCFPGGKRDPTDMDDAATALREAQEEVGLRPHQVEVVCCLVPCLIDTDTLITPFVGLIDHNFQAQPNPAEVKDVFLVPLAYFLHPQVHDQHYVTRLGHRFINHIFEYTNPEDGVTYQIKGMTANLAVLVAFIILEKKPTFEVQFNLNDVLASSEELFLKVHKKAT

| SMILES | viability at 48 h, 10 µM (in vitro [1]) [%] | viability at 48 h, 10 µM (in vitro [2]) [%] | BSA (BSA) | NUDT7 (NUDT7) | PCAF (PCAF) | NNMT (NNMT (hNNMT)) | OTUB2 (OTUB2 (OTUB2A)) | viability at 48 h, 10 µM (in vitro [3]) [%] |
| --- | --- | --- | --- | --- | --- | --- | --- | --- |
| C=CC(=O)Nc1ccccc1C(=O)OC [PCM-0102967] | 81 | 90.2 | 0 | 0.51 | 0 | 0 | 0 | 68.8 |
| O=C(CCl)Nc1ccccc1N1CCOCC1 [PCM-0102416] | 90.7 | 99.5 | 0 | 0 | 0 | 0 | 0 | 113 |
| Cc1ccc(Cn2ccsc2=NC(=O)CCl)cc1 [PCM-0102708] | 3 | 36 | 0 | 0.09 | 0 | 0 | 0 | 7.9 |
| O=C(CCl)N1CCNCC1.O=C(O)C(F)(F)F [PCM-0102476] | 100 | 101 | 0 | 0 | 0 | 0 | 0 | 92.4 |
| C=CC(=O)N1CCC(C(=O)Nc2cc(C)on2)CC1 [PCM-0102477] | 115 | 99.4 | 0 | 0 | 0 | 0 | 0 | 86.9 |
| C=CC(=O)N1CCC(n2ccc(C(F)(F)F)n2)CC1 [PCM-0102435] | 93.3 | 96.3 | 0 | 0 | 0 | 0 | 0 | 85.7 |
| O=C(CCl)N1CCCC1=O [PCM-0102982] | 101 | 111 | 0 | 0 | 0 | 0 | 0 | 114 |
| C=CC(=O)NC(C)C(=O)N1CCc2ccccc21 (stereo not shown) [PCM-0102486] | 89.6 | 99.8 | 0 | 0 | 0 | 0 | 0 | 99 |
| O=C(CCl)NC12CC3CC(CC(C3)C1)C2 [PCM-0102118] | 76.1 | 83 | 0 | 0 | 0 | 0.23 | 0 | 71.1 |
| CC(C)(C)c1nnc(NC(=O)CCl)s1 [PCM-0102736] | 67.5 | 80.1 | 0 | 0 | 0 | 0.13 | 0 | 81.5 |
| N#CCN(C(=O)CCl)c1ccccc1 [PCM-0102471] | 24.4 | 43.7 | 0.18 | 0 | 0 | 0.25 | 0.19 | 16 |
| N#Cc1cccc(C(=O)NNC(=O)CCl)c1 [PCM-0102857] | 82.6 | 103 | 0 | 0 | 0 | 0 | 0.41 | 102 |
| C=CC(=O)N1CCN(C(=O)Nc2ccc(C)c(Cl)c2)CC1 [PCM-0102604] | 122 | 74.6 | 0 | 0 | 0 | 0 | 0 | 91.5 |
| C=CC(=O)N(C)C1CCCCNC1=O (stereo not shown) [PCM-0102484] | 101 | 95.7 | 0 | 0 | 0 | 0 | 0.11 | 122 |
| Cc1ccc(C(=O)N2CCN(C(=O)CCl)CC2)cc1 [PCM-0102962] | 75.3 | 30.1 | 0 | 0 | 0 | 0 | 0 | 15.6 |
| C=CC(=O)N1CCCC1C(=O)Nc1nc2ccccc2s1 (stereo not shown) [PCM-0102681] | 115 | 95.7 | 0 | 0 | 0 | 0 | 0 | 79.7 |
| NS(=O)(=O)c1ccccc1NC(=O)CCl [PCM-0102903] | 55.2 | 65.4 | 0 | 0.29 | 0 | 0 | 0.14 | 69.7 |
| O=C(CCl)N1CCOC1=O [PCM-0102943] | 109 | 101 | 0 | 0.08 | 0 | 0 | 0 | 108 |
| Cl.O=C(CCl)N1CCN(Cc2ccc(Cl)s2)CC1 [PCM-0102277] | 37.3 | 8.6 | 0.11 | 0 | 0 | 0.26 | 0.09 | 18.2 |
| C=CC(=O)N1CCCC(c2ncc(C(F)(F)F)[nH]2)C1 (stereo not shown) [PCM-0102527] | 129 | 98.6 | 0.09 | 0 | 0 | 0 | 0 | 109 |
